Measured values taken from patent US6943170B2, “N-cycloalkylglycines as HIV protease inhibitors” (Bristol-Myers Squibb Company, priority 2002, dated 2005).
≈ marks a conversion by molar mass, not a printed value.

Test system: HIV-1 (RF)
Assay: HIV RNA assay: microplate based compound evaluation in HIV-1 infected MT-2 cells
Type: cell-based
Conditions: Human immunodeficiency virus 1, MT2, 72 h; HIV-1 (RF) infected MT-2 cells, 3 days culture; value used to standardize the virus inoculum; read-out: IC90 (concentration of compound required to reduce the HIV RNA level by 90%)
Protocol: Plasmid PDAB 72 containing both gag and pol sequences of BH10 (bp 113-1816) cloned into PTZ 19R was prepared according to Erickson-Vitanen et al. AIDS Research and Human Retroviruses 1989, 5, 577. The plasmid was linearized with Bam HI prior to the generation of in vitro RNA transcripts using the Riboprobe Gemini system II kit (Promega) with T7 RNA polymerase. Synthesized RNA was purified by treatment with RNase free DNAse (Promega), phenol-chloroform extraction, and ethanol precipitation. RNA transcripts were dissolved in water, and stored at −70EC. The concentration of RNA was determined from the A260.
Biotinylated capture probes were purified by HPLC after synthesis on an Applied Biosystems (Foster city, Calif.) DNA synthesizer by addition of biotin to the 5N terminal end of the oligonucleotide, using the biotin-phosphoramidite reagent of Cocuzza, Tet. Lett. 1989, 30, 6287. […]
MT-2 and MT-4 cells were maintained in RPMI 1640 supplemented with 5% fetal calf serum (FCS) for MT-2 cells or 10% FCS for MT-4 cells, 2 mM L-glutamine and 50 μg/mL gentamycin, all from Gibco. […] Infectious titers of HIV-1 (RF) stocks were 1-3×10^7 PFU (plaque forming units)/mL as measured by plaque assay on MT-2 cells (see below). […]

- IC90: 0.2 µg/mL (≈ 0.947 µM)
SMILES: Nc1ccn([C@H]2CC[C@@H](CO)O2)c(=O)n1 [ddC, dideoxycytidine]
